In US7217833B2, “Carboxylic acid compounds for use as surfactants” (Glaxco Group Limited, priority 2002, dated 2007):

Key:
Assay type in all cases: physicochemical
[1] = Particle size by image analysis (Galai CIS-100) of salmeterol xinafoate suspension in HFA 134a
Protocol: (§1) Salmeterol xinafoate formulations in HFA 134a, of strength 25 μg per actuation, and 10% w/w (relative to drug) of the relevant surfactant compound of formula (I) were prepared in crimped glass bottles using salmeterol xinafoate (8.7 mg), HFA 134a (18 g) and the relevant compound (0.87 mg). The control was prepared without the addition of a surfactant.
In this measurement, particle size is represented as the equivalent diameter of a circle of equal area to the object. The mean is the average of 4 determinations. The particle size measurement was obtained by transferring the suspensions to a pressurised cell, and video-imaging the sample under shear via a microscope objective.
The equivalent diameter is defined as the diameter of a circle of equal area to the object.
The mean equivalent diameter can be weighted by number, length or volume. e.g. For three particles with equivalent diameters of x, y and z: […]

[2] = Andersen Cascade Impaction of salmeterol xinafoate HFA 134a formulation; conditions: Initial timepoint, beginning of use, mean of 3 cans/inhalers, 10% w/w surfactant
Protocol: as §1
The formulation, the preparation of which is described above, was profiled using an Andersen Cascade Impactor. Ten actuations at “beginning of use” (BoU) were collected in the impactor from an inhaler after 4 priming actuations were fired to waste. The drug delivered was then quantified by HPLC analysis. Testing was performed at the initial timepoint (following sample preparation). The results, in Table 2 are shown as the mean analysis of 3 cans/inhalers.
The profile obtained was used to determine total dose emitted dose (ex-valve and ex-actuator) and the fine particle mass (FPM, defined as the sum of stages 3–5). The percentage fine particle mass expresses the FPM as a percentage of the total dose emitted (ex-valve). The FPM is used as a measure of the proportion of the drug likely to reach the therapeutic target in the lungs.

[3] = Content uniformity by dose through use testing; conditions: Initial timepoint, 10% w/w surfactant
Protocol: as §1
The content uniformity of the formulation, the preparation of which is described above, was assessed by dose through use testing. Testing was performed on 10 cans/inhalers at “beginning of use” (BoU) and “end of use” (EoU). After each inhaler had been primed (4 shots fired to waste), actuations 1 and 2 (BoU) were collected. The next 116 actuations of each inhaler were then fired to waste using an automated method and actuations 119 and 120 (EoU) collected.
Assessment of content uniformity was performed at the initial timepoint (following sample preparation). Mean results from the two BoU actuations (1+2 for 10 inhalers) and the two EoU actuations (119+120 for same 10 inhalers) together with the percentage relative standard deviation (% RSD) for the 10 cans are shown in Table 3. […] The presence of the surfactant therefore improves the content uniformity of the inhaler. Furthermore the formulations containing the compound of Example 1, advantageously, show a reduction in the relative standard deviation at the BoU and EoU.

O=C(CCC(F)(F)C(F)(F)F)OCC(OC(=O)CCC(F)(F)C(F)(F)F)C(=O)O (centres unmarked) [Example 1, 2,3-Bis[(4,4,5,5,5-pentafluoronentanoyl)oxy]propanoic acid]
Mean Length weighted diameter ([1]; salmeterol xinafoate 25 μg per actuation in HFA 134a with 10% w/w (relative to drug) surfactant, mean of 4 determinations): 21.5 μm
suspension stabilising properties (flocculation of drug particles) ([1]; salmeterol xinafoate formulation in HFA 134a with 10% w/w surfactant): has suspension stabilising properties
Total Dose Emitted (Ex-Actuator) ([2]; 10 actuations): 21.1 µg
Total Dose Emitted (Ex-Valve) ([2]; 10 actuations): 23.9 µg
% FPM (FPM as percentage of total dose emitted ex-valve) [2]: 50.3%
FPM (fine particle mass, sum of stages 3–5) [2]: 12.0 µg
BoU dose ([3]; actuations 1+2, mean of 10 inhalers): 21.2 µg
EoU dose ([3]; actuations 119+120, mean of 10 inhalers): 25.1 µg
